Data from PMC11093748, “De novo identification of CD4^+ T cell epitopes” (Nature Methods, 2024).

Columns and labels:
5-4-E8 TCR = assay: Single SABR-II co-incubation, NFAT-GFP Jurkat; assay type: cell-based, mouse; settings: I-Ad SABR-II; 18-20 h
Text: (§1) We have previously described SABRs, which are chimeric receptors containing an extracellular pMHC complex attached to an intracellular CD28-CD3ζ signaling domain. […] We sought to expand this platform to allow antigen discovery for MHC/HLA-II with seamless integration with class I alleles. Here, we created SABRs to present epitopes in MHC-II alleles, by covalently linking the epitope to the β-chain of MHC-II that is attached to the CD28-CD3ζ signaling domains downstream, along with a 2A peptide-linked MHC-II α-chain (Fig. 1a,b). To test whether SABR-IIs could present epitopes to TCRs and induce a signal, we expressed them using lentiviral vectors in NFAT–GFP Jurkat cells, which express green fluorescent protein (GFP) upon NFAT activation and translocation downstream of CD3ζ activation (a kind gift from Y. Chen and A. Weiss). We constructed murine SABR-IIs presenting epitopes in I-Ab, I-Ad and I-Ag7 (Ova, […][41]; ATEG, […][42]; and 2.5mimo, […][43], respectively). We co-incubated the SABR-II-expressing NFAT–GFP Jurkat cells with a separate population of Jurkat cells expressing either the BDC2.5 TCR (recognizes I-Ag7-2.5mimo), OT-II TCR (recognizes I-Ab-Ova), 5-4-E8 TCR (recognizes I-Ad-ATEG) or no TCR. […]

TCR2 [1] = assay: I-Ag7 SABR-II HIP library screen, enrichment score; assay type: cell-based, mouse; settings: TCR_Mean of 3 replicates minus PREDICTED_TCR (slope 0.896988, intercept 4.04602e-5)
Text: (§2) Given the predominance of HIP-reactive TCRs, we hypothesized that there may be other TCRs that respond to HIPs that were not encoded in our initial library configuration. While the initial I-Ag7 SABR-II library consisted of a number of HIPs, HIP formation is thought to be more widespread in pancreatic β-cells[52],[70]. Therefore, we sought to construct a defined, HIP-focused library to probe whether there were any undiscovered HIP-reactive TCRs that could be recognized by the clonally expanded TCR in our dataset. To test this, we utilized a published proteomic dataset, which predicted that several proteins that were highly expressed in secretory granules of β-cells may contribute to HIP formation. Using their predictions, we built a theoretical HIP library, in which all possible ‘left’ halves of the insulin C chain derived from natural cleavage products were fused to ‘right’ halves derived from secretory granule proteins (Fig. 5a). This 2,561-epitope library (12–25 amino acids per epitope) consisted of only HIPs and a small number of positive control epitopes (Supplementary Table 5). We screened the top three clonally expanded TCRs (TCR1, TCR2 and TCR3) against this library, as these TCRs had not been de-convoluted using the original library. […] To confirm that the HIP itself was important for the cognate interaction, we cloned single 14-mer epitopes into SABR-IIs consisting of seven amino acids of the left portion of the HIP and seven amino acids of the right portion of the HIP. In this way, no nine amino acids from either peptide sequence alone could occupy the binding pocket of I-Ag7, ensuring that TCR reactivity spanned the HIP junction. […] Of note, in all the epitopes that were tested, the ‘left’ half derived from insulin C was conserved, whereas the ‘right’ halves were derived from several other proteins (Fig. 5d). […] Moreover, the promiscuous binding of TCR3 to HIPs corroborates evidence from other NOD mouse-derived TCRs reacting to multiple HIPs[72].
(§3) To generate the I-Ag7 restricted SABR library, we combined all Immune Epitope Database epitopes with a published immunopeptidome generated by Wan et al.[51]. Sequences were filtered remove all post-translational modifications except deamidation and HIPs and trimmed between 9–25 amino acid lengths. For the insulin C HIP and HLA-DQ8 library, non-contiguous epitopes from Wiles et al.[66] as well as all Immune Epitope Database epitopes were combined to generate the epitope list. Epitope sequences were back-translated using the backtranslate_fast.py script.
(§4) For SABR library screens, 3 × 10^6 NFAT–GFP Jurkat cells expressing the SABR library were labeled with CellTrace Violet (BioLegend) according to the manufacturer’s protocol before incubation with 3 × 10^6 Jurkat cells expressing the TCR of interest. These mixtures were incubated in a six-well plate for 16–20 h. Cells were stained with anti-CD69-APC-Cy7 where indicated (BioLegend) and the top 1–2% of GFP^+CD69^+ cells were sorted for genomic DNA extraction, indexing and sequencing (see below). Multiplexed assays were scaled on a per-TCR basis (for example 3 × 10^6 for each of three TCRs against 9 × 10^6 library cells). For single SABR assays, unless otherwise defined, 5 × 10^5 SABR expressing NFAT–GFP Jurkat cells (or 5KC cells) were labeled with CellTrace Violet (BioLegend) according to the manufacturer’s protocol before incubation with 5 × 10^5 TCR-expressing Jurkat cells (or 5KC cells) in a round-bottom 96-well plate for 16–20 h. Cells were stained with anti-CD69-APC-Cy7 when indicated and acquired on the Attune NxT flow cytometer (Thermo Fisher Scientific). All flow analysis was performed using FlowJo (BD). For Daudi cell co-culture, 1 × 10^6 Jurkat cells expressing the TCR of interest were incubated with 1 × 10^6 Daudi cells expressing a SABR of interest for 3 days. On day 3, cells were labeled with anti-RT1B-PE and anti-Fas-APC-Cy7 before being acquired on the Attune NxT flow cytometer. […]

TCR1 = assay: I-Ag7 SABR-II HIP library screen, enrichment score; assay type: cell-based, mouse; settings: TCR_Mean of 3 replicates minus PREDICTED_TCR (slope 0.931777, intercept 2.67961e-5)
Text: as §2, §3, §4

OT-II TCR = assay: Single SABR-II co-incubation, NFAT-GFP Jurkat; assay type: cell-based, mouse; settings: I-Ab SABR-II; 18-20 h
Text: as §1

TCR15 = assay: Single SABR-II co-incubation, NFAT-GFP Jurkat; assay type: cell-based, mouse; settings: TCR 15, Fig 3B, 18 h
In short: (§5)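 Single SABR-II constructs for putative cognate epitopes were expressed in CellTrace Violet-labelled NFAT–GFP Jurkat cells and co-incubated 1:1 (5 × 10^5 each) with TCR-expressing Jurkat cells for 16–20 h. GFP (with CD69 staining when indicated) was measured by flow cytometry. Wells with GFP above the no-TCR control were scored positive.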

TCR4 = assay: Single SABR-II co-incubation, NFAT-GFP Jurkat; assay type: cell-based, mouse; settings: TCR 4
In short: as §5

Jurkat cells, No TCR = assay: Single SABR-II co-incubation, background without TCR; assay type: cell-based, human; settings: No TCR
In short: as §5

TCR2 [2] = assay: Single SABR-II co-incubation, NFAT-GFP Jurkat; assay type: cell-based, mouse; settings: TCR 2, Ext. Data Fig. 6C, 18-20 hr
In short: as §5

GSE.6H9 TCR = assay: Single SABR-II co-incubation, NFAT-GFP Jurkat (HLA-DQ8); assay type: cell-based, human; settings: GSE 6.H9 TCR
Text: (§6) We have previously described SABRs, which are chimeric receptors containing an extracellular pMHC complex attached to an intracellular CD28-CD3ζ signaling domain. […] We sought to expand this platform to allow antigen discovery for MHC/HLA-II with seamless integration with class I alleles. Here, we created SABRs to present epitopes in MHC-II alleles, by covalently linking the epitope to the β-chain of MHC-II that is attached to the CD28-CD3ζ signaling domains downstream, along with a 2A peptide-linked MHC-II α-chain (Fig. 1a,b). To test whether SABR-IIs could present epitopes to TCRs and induce a signal, we expressed them using lentiviral vectors in NFAT–GFP Jurkat cells, which express green fluorescent protein (GFP) upon NFAT activation and translocation downstream of CD3ζ activation (a kind gift from Y. Chen and A. Weiss). We constructed murine SABR-IIs presenting epitopes in I-Ab, I-Ad and I-Ag7 (Ova, […][41]; ATEG, […][42]; and 2.5mimo, […][43], respectively). We co-incubated the SABR-II-expressing NFAT–GFP Jurkat cells with a separate population of Jurkat cells expressing either the BDC2.5 TCR (recognizes I-Ag7-2.5mimo), OT-II TCR (recognizes I-Ab-Ova), 5-4-E8 TCR (recognizes I-Ad-ATEG) or no TCR. […] The signal from the NFAT–GFP reporter offered minimal background in absence of a cognate TCR and correlated with surface SABR expression in the presence of a cognate TCR (Extended Data Fig. 1c–e). […] We confirmed the ability of the DQ8-InsB9:23 SABR-II to present the epitope to two previously described, T1D patient-derived TCRs GSE.6H9 and GSE.20D11 (ref. [46]).
(§7) For SABR library screens, 3 × 10^6 NFAT–GFP Jurkat cells expressing the SABR library were labeled with CellTrace Violet (BioLegend) according to the manufacturer’s protocol before incubation with 3 × 10^6 Jurkat cells expressing the TCR of interest. These mixtures were incubated in a six-well plate for 16–20 h. Cells were stained with anti-CD69-APC-Cy7 where indicated (BioLegend) and the top 1–2% of GFP^+CD69^+ cells were sorted for genomic DNA extraction, indexing and sequencing (see below). Multiplexed assays were scaled on a per-TCR basis (for example 3 × 10^6 for each of three TCRs against 9 × 10^6 library cells). For single SABR assays, unless otherwise defined, 5 × 10^5 SABR expressing NFAT–GFP Jurkat cells (or 5KC cells) were labeled with CellTrace Violet (BioLegend) according to the manufacturer’s protocol before incubation with 5 × 10^5 TCR-expressing Jurkat cells (or 5KC cells) in a round-bottom 96-well plate for 16–20 h. Cells were stained with anti-CD69-APC-Cy7 when indicated and acquired on the Attune NxT flow cytometer (Thermo Fisher Scientific). All flow analysis was performed using FlowJo (BD). For Daudi cell co-culture, 1 × 10^6 Jurkat cells expressing the TCR of interest were incubated with 1 × 10^6 Daudi cells expressing a SABR of interest for 3 days. On day 3, cells were labeled with anti-RT1B-PE and anti-Fas-APC-Cy7 before being acquired on the Attune NxT flow cytometer.

GSE.20D11 TCR = assay: as above; assay type: cell-based, human; settings: GSE 20.D11 TCR
Text: as §6, §7

[3] = Ext. Data Fig. 6C, 18-20 hr, technical replicate 1
[4] = Ext. Data Fig. 6C, 18-20 hr, technical replicate 2
[5] = Fig 3B, 18 h, biological replicate 1
[6] = Fig 3B, 18 h, biological replicate 2
[7] = Fig 3B, 18 h, biological replicate 3

## ATEGRVRVNSAYQDK
5-4-E8 TCR
  GFP and CD69 expression in SABR-II-expressing NFAT-GFP Jurkat cells (in words): Robust GFP and CD69 expression

## EVEDPQVAQLNAARDPNRESLD
TCR2 [1]
  Enrichment score: 0.0005844

## EVEDPQVEQLEGEDDPDRSMK
TCR2 [1]
  Enrichment score: 0.000574

## EVEDPQVEQLELSGKEVKGEEKGE
TCR1
  Enrichment score: 0.0005139

## EVEDPQVEWSRMDQLAKELT
TCR1
  Enrichment score: 0.0005047

## EVQEKPQELTDQDQSQEESQEG
TCR1
  Enrichment score: 0.0005738

## GAGDLQTLALEVEEEGSANRRAED
TCR2 [1]
  Enrichment score: 0.0005985

## GDLQTLALEVAQSGKEVKGEEKGE
TCR1
  Enrichment score: 0.0005301

## ISQAVHAAHAEINEAGR [Ova]
OT-II TCR
  GFP and CD69 expression in SABR-II-expressing NFAT-GFP Jurkat cells (in words): Robust GFP and CD69 expression

## LQTLALNAARD
TCR15; biological replicate 1
  %GFP+CD69+ cells of SABR-NFAT-GFP-Jurkat cells: 43.67%
TCR15; biological replicate 2
  %GFP+CD69+ cells of SABR-NFAT-GFP-Jurkat cells: 48.77%
TCR15; biological replicate 3
  %GFP+CD69+ cells of SABR-NFAT-GFP-Jurkat cells: 51.63%
TCR4; [3]
  %GFP+CD69+ cells of SABR-NFAT-GFP-Jurkat cells: 22.3%
TCR4; [4]
  %GFP+CD69+ cells of SABR-NFAT-GFP-Jurkat cells: 22%
TCR4; [5]
  %GFP+CD69+ cells of SABR-NFAT-GFP-Jurkat cells: 42.4%
TCR4; [6]
  %GFP+CD69+ cells of SABR-NFAT-GFP-Jurkat cells: 41.7%
TCR4; [7]
  %GFP+CD69+ cells of SABR-NFAT-GFP-Jurkat cells: 45.77%
Jurkat cells, No TCR; [3]
  %GFP+CD69+ cells of SABR-NFAT-GFP-Jurkat cells: 4.02%
Jurkat cells, No TCR; [4]
  %GFP+CD69+ cells of SABR-NFAT-GFP-Jurkat cells: 3.97%
Jurkat cells, No TCR; [5]
  %GFP+CD69+ cells of SABR-NFAT-GFP-Jurkat cells: 2.49%
Jurkat cells, No TCR; [6]
  %GFP+CD69+ cells of SABR-NFAT-GFP-Jurkat cells: 7.87%
Jurkat cells, No TCR; [7]
  %GFP+CD69+ cells of SABR-NFAT-GFP-Jurkat cells: 3.83%

## PGDLQTLALEVALLDEGHYPVRES
TCR2 [1]
  Enrichment score: 0.0008737

## RQNGVLNSWTDQD
TCR2 [2]; technical replicate 1
  %GFP+CD69+ cells of SABR-NFAT-GFP-Jurkat cells: 1.56%
TCR2 [2]; technical replicate 2
  %GFP+CD69+ cells of SABR-NFAT-GFP-Jurkat cells: 1.62%
Jurkat cells, No TCR; [3]
  %GFP+CD69+ cells of SABR-NFAT-GFP-Jurkat cells: 1.51%
Jurkat cells, No TCR; [4]
  %GFP+CD69+ cells of SABR-NFAT-GFP-Jurkat cells: 1.42%

## SHLVEALYLVCERG
GSE.6H9 TCR; biological replicate 1 of 3
  Frequency of %GFP+CD69+ cells of SABR-NFAT-GFP-Jurkat cells: 16.8%
GSE.6H9 TCR; biological replicate 2 of 3
  Frequency of %GFP+CD69+ cells of SABR-NFAT-GFP-Jurkat cells: 29.6%
GSE.6H9 TCR; biological replicate 3 of 3
  Frequency of %GFP+CD69+ cells of SABR-NFAT-GFP-Jurkat cells: 27.9%
GSE.20D11 TCR; biological replicate 1 of 3
  Frequency of %GFP+CD69+ cells of SABR-NFAT-GFP-Jurkat cells: 24.8%
GSE.20D11 TCR; biological replicate 2 of 3
  Frequency of %GFP+CD69+ cells of SABR-NFAT-GFP-Jurkat cells: 42.4%
GSE.20D11 TCR; biological replicate 3 of 3
  Frequency of %GFP+CD69+ cells of SABR-NFAT-GFP-Jurkat cells: 41.1%

## SPGDLQTLALEVPSPKESKEADVA
TCR1
  Enrichment score: 0.0005282

## VAQLELGGGPGASEASAKKKDESV
TCR2 [1]
  Enrichment score: 0.0007771
